Measurements: PubChem BioAssay (NCI)
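A five-concentration, 48-hour dose response in 96-well plates underlies each endpoint, interpolated linearly between surrounding concentrations. At the TGI there is no net growth.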

These compounds were tested on A498 renal (assay: growth of human tumour cells (NCI), 48 h).

| Compound | TGI |
| --- | --- |
| CCOC(=O)NC(Nc1ccc(OC(F)(F)F)cc1)(C(F)(F)F)C(F)(F)F | > 100 µM |

These compounds were tested on PC-3 prostate (assay: growth of human tumour cells (NCI), 48 h).

| Compound | TGI |
| --- | --- |
| COc1ccc(N2C(=O)C3c4[nH]c5ccccc5c4C4CCC(c5ccccc5)CC4C3C2=O)cc1 (centres undefined) | > 78.5 µM |
| CC(C)=CC(=O)c1[nH]c2ccccc2c1CC(=O)NCCc1cn(C(c2ccccc2)(c2ccccc2)c2ccccc2)cn1 | 6.75 µM |
| CCCCC(=O)OC[n+]1cccc(-c2c(COC(=O)NC(C)C)c(COC(=O)NC(C)C)c3n2CCC3)c1 | > 100 µM |
| CCOC(=O)NC(Nc1ccc(OC(F)(F)F)cc1)(C(F)(F)F)C(F)(F)F | > 100 µM |

Each compound was assayed on KM12 colon (assay: growth of human tumour cells (NCI), 48 h).

| Compound | TGI |
| --- | --- |
| COc1ccc(N2C(=O)C3c4[nH]c5ccccc5c4C4CCC(c5ccccc5)CC4C3C2=O)cc1 (centres undefined) | > 100 µM |
| CC(C)=CC(=O)c1[nH]c2ccccc2c1CC(=O)NCCc1cn(C(c2ccccc2)(c2ccccc2)c2ccccc2)cn1 | 14.2 µM |
| CCCCC(=O)OC[n+]1cccc(-c2c(COC(=O)NC(C)C)c(COC(=O)NC(C)C)c3n2CCC3)c1 | > 100 µM |
| CCOC(=O)NC(Nc1ccc(OC(F)(F)F)cc1)(C(F)(F)F)C(F)(F)F | > 100 µM |

Each compound was assayed on SF-295 CNS (assay: growth of human tumour cells (NCI), 48 h).

| Compound | TGI |
| --- | --- |
| COc1ccc(N2C(=O)C3c4[nH]c5ccccc5c4C4CCC(c5ccccc5)CC4C3C2=O)cc1 (centres undefined) | > 51.1 µM |
| CC(C)=CC(=O)c1[nH]c2ccccc2c1CC(=O)NCCc1cn(C(c2ccccc2)(c2ccccc2)c2ccccc2)cn1 | > 100 µM |
| CCCCC(=O)OC[n+]1cccc(-c2c(COC(=O)NC(C)C)c(COC(=O)NC(C)C)c3n2CCC3)c1 | > 100 µM |
| CCOC(=O)NC(Nc1ccc(OC(F)(F)F)cc1)(C(F)(F)F)C(F)(F)F | > 100 µM |

Each compound was assayed on MCF7 breast (assay: growth of human tumour cells (NCI), 48 h).

| Compound | TGI |
| --- | --- |
| COc1ccc(N2C(=O)C3c4[nH]c5ccccc5c4C4CCC(c5ccccc5)CC4C3C2=O)cc1 (centres undefined) | > 100 µM |
| CC(C)=CC(=O)c1[nH]c2ccccc2c1CC(=O)NCCc1cn(C(c2ccccc2)(c2ccccc2)c2ccccc2)cn1 | > 100 µM |
| CCCCC(=O)OC[n+]1cccc(-c2c(COC(=O)NC(C)C)c(COC(=O)NC(C)C)c3n2CCC3)c1 | > 100 µM |
| CCOC(=O)NC(Nc1ccc(OC(F)(F)F)cc1)(C(F)(F)F)C(F)(F)F | > 100 µM |

These compounds were tested on NCI-H226 lung (assay: growth of human tumour cells (NCI), 48 h).

| Compound | TGI |
| --- | --- |
| COc1ccc(N2C(=O)C3c4[nH]c5ccccc5c4C4CCC(c5ccccc5)CC4C3C2=O)cc1 (centres undefined) | > 96.7 µM |
| CC(C)=CC(=O)c1[nH]c2ccccc2c1CC(=O)NCCc1cn(C(c2ccccc2)(c2ccccc2)c2ccccc2)cn1 | 6.28 µM |
| CCCCC(=O)OC[n+]1cccc(-c2c(COC(=O)NC(C)C)c(COC(=O)NC(C)C)c3n2CCC3)c1 | > 100 µM |
| CCOC(=O)NC(Nc1ccc(OC(F)(F)F)cc1)(C(F)(F)F)C(F)(F)F | > 100 µM |

Each compound was assayed on SK-MEL-2 melanoma (assay: growth of human tumour cells (NCI), 48 h).

| Compound | TGI |
| --- | --- |
| COc1ccc(N2C(=O)C3c4[nH]c5ccccc5c4C4CCC(c5ccccc5)CC4C3C2=O)cc1 (centres undefined) | 53.2 µM |
| CC(C)=CC(=O)c1[nH]c2ccccc2c1CC(=O)NCCc1cn(C(c2ccccc2)(c2ccccc2)c2ccccc2)cn1 | 3.54 µM |
| CCCCC(=O)OC[n+]1cccc(-c2c(COC(=O)NC(C)C)c(COC(=O)NC(C)C)c3n2CCC3)c1 | 70.6 µM |
| CCOC(=O)NC(Nc1ccc(OC(F)(F)F)cc1)(C(F)(F)F)C(F)(F)F | > 100 µM |

The compounds below were run on HOP-92 NSCLC (assay: growth of human tumour cells (NCI), 48 h).

| Compound | TGI |
| --- | --- |
| COc1ccc(N2C(=O)C3c4[nH]c5ccccc5c4C4CCC(c5ccccc5)CC4C3C2=O)cc1 (centres undefined) | 61.8 µM |
| CC(C)=CC(=O)c1[nH]c2ccccc2c1CC(=O)NCCc1cn(C(c2ccccc2)(c2ccccc2)c2ccccc2)cn1 | > 26.1 µM |
| CCCCC(=O)OC[n+]1cccc(-c2c(COC(=O)NC(C)C)c(COC(=O)NC(C)C)c3n2CCC3)c1 | 77.2 µM |
| CCOC(=O)NC(Nc1ccc(OC(F)(F)F)cc1)(C(F)(F)F)C(F)(F)F | > 100 µM |

These compounds were tested on UACC-62 melanoma (assay: growth of human tumour cells (NCI), 48 h).

| Compound | TGI |
| --- | --- |
| COc1ccc(N2C(=O)C3c4[nH]c5ccccc5c4C4CCC(c5ccccc5)CC4C3C2=O)cc1 (centres undefined) | 50.3 µM |
| CC(C)=CC(=O)c1[nH]c2ccccc2c1CC(=O)NCCc1cn(C(c2ccccc2)(c2ccccc2)c2ccccc2)cn1 | 4.72 µM |
| CCCCC(=O)OC[n+]1cccc(-c2c(COC(=O)NC(C)C)c(COC(=O)NC(C)C)c3n2CCC3)c1 | 60.7 µM |
| CCOC(=O)NC(Nc1ccc(OC(F)(F)F)cc1)(C(F)(F)F)C(F)(F)F | > 100 µM |

These compounds were tested on LOX IMVI melanoma (assay: growth of human tumour cells (NCI), 48 h).

| Compound | TGI |
| --- | --- |
| COc1ccc(N2C(=O)C3c4[nH]c5ccccc5c4C4CCC(c5ccccc5)CC4C3C2=O)cc1 (centres undefined) | > 54.1 µM |
| CC(C)=CC(=O)c1[nH]c2ccccc2c1CC(=O)NCCc1cn(C(c2ccccc2)(c2ccccc2)c2ccccc2)cn1 | 4.46 µM |
| CCCCC(=O)OC[n+]1cccc(-c2c(COC(=O)NC(C)C)c(COC(=O)NC(C)C)c3n2CCC3)c1 | > 65.9 µM |
| CCOC(=O)NC(Nc1ccc(OC(F)(F)F)cc1)(C(F)(F)F)C(F)(F)F | > 100 µM |

What follows are compounds tested on CCRF-CEM leukemia (assay: growth of human tumour cells (NCI), 48 h).

| Compound | TGI |
| --- | --- |
| COc1ccc(N2C(=O)C3c4[nH]c5ccccc5c4C4CCC(c5ccccc5)CC4C3C2=O)cc1 (centres undefined) | 53 µM |
| CC(C)=CC(=O)c1[nH]c2ccccc2c1CC(=O)NCCc1cn(C(c2ccccc2)(c2ccccc2)c2ccccc2)cn1 | > 24.3 µM |
| CCCCC(=O)OC[n+]1cccc(-c2c(COC(=O)NC(C)C)c(COC(=O)NC(C)C)c3n2CCC3)c1 | > 77.4 µM |
| CCOC(=O)NC(Nc1ccc(OC(F)(F)F)cc1)(C(F)(F)F)C(F)(F)F | > 100 µM |

The compounds below were run on HCC-2998 colon (assay: growth of human tumour cells (NCI), 48 h).

| Compound | TGI |
| --- | --- |
| COc1ccc(N2C(=O)C3c4[nH]c5ccccc5c4C4CCC(c5ccccc5)CC4C3C2=O)cc1 (centres undefined) | > 44.9 µM |
| CC(C)=CC(=O)c1[nH]c2ccccc2c1CC(=O)NCCc1cn(C(c2ccccc2)(c2ccccc2)c2ccccc2)cn1 | 3.78 µM |
| CCCCC(=O)OC[n+]1cccc(-c2c(COC(=O)NC(C)C)c(COC(=O)NC(C)C)c3n2CCC3)c1 | > 100 µM |
| CCOC(=O)NC(Nc1ccc(OC(F)(F)F)cc1)(C(F)(F)F)C(F)(F)F | > 100 µM |

The compounds below were run on SK-MEL-28 melanoma (assay: growth of human tumour cells (NCI), 48 h).

| Compound | TGI |
| --- | --- |
| COc1ccc(N2C(=O)C3c4[nH]c5ccccc5c4C4CCC(c5ccccc5)CC4C3C2=O)cc1 (centres undefined) | > 96.2 µM |
| CC(C)=CC(=O)c1[nH]c2ccccc2c1CC(=O)NCCc1cn(C(c2ccccc2)(c2ccccc2)c2ccccc2)cn1 | 12.4 µM |
| CCCCC(=O)OC[n+]1cccc(-c2c(COC(=O)NC(C)C)c(COC(=O)NC(C)C)c3n2CCC3)c1 | > 100 µM |
| CCOC(=O)NC(Nc1ccc(OC(F)(F)F)cc1)(C(F)(F)F)C(F)(F)F | > 100 µM |

The compounds below were run on BT-549 breast (assay: growth of human tumour cells (NCI), 48 h).

| Compound | TGI |
| --- | --- |
| COc1ccc(N2C(=O)C3c4[nH]c5ccccc5c4C4CCC(c5ccccc5)CC4C3C2=O)cc1 (centres undefined) | > 58.3 µM |
| CC(C)=CC(=O)c1[nH]c2ccccc2c1CC(=O)NCCc1cn(C(c2ccccc2)(c2ccccc2)c2ccccc2)cn1 | 11 µM |
| CCCCC(=O)OC[n+]1cccc(-c2c(COC(=O)NC(C)C)c(COC(=O)NC(C)C)c3n2CCC3)c1 | > 100 µM |
| CCOC(=O)NC(Nc1ccc(OC(F)(F)F)cc1)(C(F)(F)F)C(F)(F)F | > 100 µM |

These compounds were tested on SN12C renal (assay: growth of human tumour cells (NCI), 48 h).

| Compound | TGI |
| --- | --- |
| COc1ccc(N2C(=O)C3c4[nH]c5ccccc5c4C4CCC(c5ccccc5)CC4C3C2=O)cc1 (centres undefined) | > 68.4 µM |
| CC(C)=CC(=O)c1[nH]c2ccccc2c1CC(=O)NCCc1cn(C(c2ccccc2)(c2ccccc2)c2ccccc2)cn1 | > 23.9 µM |
| CCCCC(=O)OC[n+]1cccc(-c2c(COC(=O)NC(C)C)c(COC(=O)NC(C)C)c3n2CCC3)c1 | > 100 µM |
| CCOC(=O)NC(Nc1ccc(OC(F)(F)F)cc1)(C(F)(F)F)C(F)(F)F | > 100 µM |

The compounds below were run on NCI-H23 lung (assay: growth of human tumour cells (NCI), 48 h).

| Compound | TGI |
| --- | --- |
| COc1ccc(N2C(=O)C3c4[nH]c5ccccc5c4C4CCC(c5ccccc5)CC4C3C2=O)cc1 (centres undefined) | > 51.7 µM |
| CC(C)=CC(=O)c1[nH]c2ccccc2c1CC(=O)NCCc1cn(C(c2ccccc2)(c2ccccc2)c2ccccc2)cn1 | > 36.2 µM |
